Earlier results on 2 compounds are cited in patent publication US20220280598A1, “COMPLEMENT INHIBITOR DOSING REGIMENS” (Apellis Pharmaceuticals, Inc., priority 2019, published 2022).

In data set [1] the test system is complement activation (alternative pathway). The note with it: alternative pathway-mediated erythrocyte lysis assay (WO2004/026328); cited from earlier work.
Another data set deals with complement activation. The note with it: relative to compstatin amidated at the C-terminus; published data; cited from earlier work.

Regarding `CC[C@H](C)[C@H](N)C(=O)N[C@H]1CSSC[C@@H](C(=O)N[C@H](C(N)=O)[C@@H](C)O)NC(=O)[C@H](CCCN=C(N)N)NC(=O)[C@H](Cc2cnc[nH]2)NC(=O)[C@H](Cc2cnc[nH]2)NC(=O)CNC(=O)[C@H](Cc2c[nH]c3ccccc23)NC(=O)[C@H](CC(=O)O)NC(=O)[C@H](CCC(N)=O)NC(=O)[C@H](C(C)C)NC(=O)[C@H](C(C)C)NC1=O` [Compstatin, H-ICVVQDWGHHRCT-CONH2], in data set [1], the IC50 was 12 µM.

Consider Ac-ICVVQDWGHHRCT-CONH2 [Ac-compstatin], for which the Activity over compstatin with complement activation is on record as 3 × more.
